Measurements taken from the CheMixHub viscosity set.

Experiment: xn = mol fraction of the nth substance listed

CCCOCCO + OCCOCCOCCO
101 kPa
Details | viscosity [mPa·s]
293.15 K, x1 = 0.0477 | 37.18
293.15 K, x1 = 0.1028 | 32.98
293.15 K, x1 = 0.2026 | 26.12
293.15 K, x1 = 0.3116 | 19.86
293.15 K, x1 = 0.397 | 15.84
293.15 K, x1 = 0.4561 | 13.47
293.15 K, x1 = 0.4963 | 12.06
293.15 K, x1 = 0.549 | 10.39
293.15 K, x1 = 0.5885 | 9.266
293.15 K, x1 = 0.6941 | 6.794
293.15 K, x1 = 0.8011 | 4.892
293.15 K, x1 = 0.9015 | 3.544
293.15 K, x1 = 0.9316 | 3.208
298.15 K, x1 = 0.0552 | 30.77
298.15 K, x1 = 0.1173 | 26.96
298.15 K, x1 = 0.2033 | 22.23
298.15 K, x1 = 0.3039 | 17.54
298.15 K, x1 = 0.4049 | 13.68
298.15 K, x1 = 0.4555 | 12.02
298.15 K, x1 = 0.5186 | 10.2
298.15 K, x1 = 0.5413 | 9.595
298.15 K, x1 = 0.591 | 8.373
298.15 K, x1 = 0.6905 | 6.309
298.15 K, x1 = 0.7968 | 4.592
298.15 K, x1 = 0.8962 | 3.38
298.15 K, x1 = 0.9323 | 3.003
303.15 K, x1 = 0.0529 | 26.52
303.15 K, x1 = 0.1142 | 23.47
303.15 K, x1 = 0.2041 | 19.36
303.15 K, x1 = 0.2979 | 15.66
303.15 K, x1 = 0.4027 | 12.28
303.15 K, x1 = 0.4522 | 10.91
303.15 K, x1 = 0.4952 | 9.838
303.15 K, x1 = 0.5507 | 8.582
303.15 K, x1 = 0.5939 | 7.697
303.15 K, x1 = 0.6941 | 5.899
303.15 K, x1 = 0.7987 | 4.346
303.15 K, x1 = 0.9027 | 3.083
303.15 K, x1 = 0.9431 | 2.664

N#Cc1ccccc1 + CO
Details | viscosity [mPa·s]
303 K, 100 kPa, x1 = 0.0991 | 0.6312
303 K, 100 kPa, x1 = 0.2405 | 0.7232
303 K, 100 kPa, x1 = 0.3585 | 0.7886
303 K, 100 kPa, x1 = 0.4974 | 0.8399
303 K, 100 kPa, x1 = 0.6272 | 0.9121
303 K, 100 kPa, x1 = 0.7094 | 0.9522
303 K, 100 kPa, x1 = 0.8023 | 0.9912
303 K, 100 kPa, x1 = 0.897 | 1.035
303.15 K, 101.33 kPa, x1 = 0.0854 | 0.562
303.15 K, 101.33 kPa, x1 = 0.1569 | 0.603
303.15 K, 101.33 kPa, x1 = 0.2408 | 0.652
303.15 K, 101.33 kPa, x1 = 0.4349 | 0.763
303.15 K, 101.33 kPa, x1 = 0.5335 | 0.82
303.15 K, 101.33 kPa, x1 = 0.6304 | 0.875
303.15 K, 101.33 kPa, x1 = 0.7155 | 0.926
303.15 K, 101.33 kPa, x1 = 0.8439 | 1.011
303.15 K, 101.33 kPa, x1 = 0.9059 | 1.061
308 K, 100 kPa, x1 = 0.0991 | 0.5712
308 K, 100 kPa, x1 = 0.2405 | 0.6523
308 K, 100 kPa, x1 = 0.3585 | 0.7123
308 K, 100 kPa, x1 = 0.4974 | 0.7652
308 K, 100 kPa, x1 = 0.6272 | 0.8012
308 K, 100 kPa, x1 = 0.7094 | 0.8307
308 K, 100 kPa, x1 = 0.8023 | 0.8716
308 K, 100 kPa, x1 = 0.897 | 0.9146
308.15 K, 101.33 kPa, x1 = 0.0854 | 0.525
308.15 K, 101.33 kPa, x1 = 0.1569 | 0.562
308.15 K, 101.33 kPa, x1 = 0.2408 | 0.608
308.15 K, 101.33 kPa, x1 = 0.4349 | 0.709
308.15 K, 101.33 kPa, x1 = 0.5335 | 0.761
308.15 K, 101.33 kPa, x1 = 0.6304 | 0.811
308.15 K, 101.33 kPa, x1 = 0.7155 | 0.859
308.15 K, 101.33 kPa, x1 = 0.8439 | 0.938
308.15 K, 101.33 kPa, x1 = 0.9059 | 0.985
313 K, 100 kPa, x1 = 0.0991 | 0.5056
313 K, 100 kPa, x1 = 0.2405 | 0.5595
313 K, 100 kPa, x1 = 0.3585 | 0.6235
313 K, 100 kPa, x1 = 0.4974 | 0.6856
313 K, 100 kPa, x1 = 0.6272 | 0.7325
313 K, 100 kPa, x1 = 0.7094 | 0.7731
313 K, 100 kPa, x1 = 0.8023 | 0.8134
313 K, 100 kPa, x1 = 0.897 | 0.8658

CCCCn1cc[n+](C)c1.[Cl-] + O
101 kPa
Details | viscosity [mPa·s]
293.15 K, x2 = 0.4982 | 235.1
293.15 K, x2 = 0.6132 | 85.9
303.15 K, x2 = 0.5535 | 83.3
308.15 K, x2 = 0.4982 | 92.5

CCCOCCO + OCCOCCOCCOCCO
101 kPa
Details | viscosity [mPa·s]
293.15 K, x1 = 0.0542 | 48.17
293.15 K, x1 = 0.1014 | 43.86
293.15 K, x1 = 0.201 | 35.31
293.15 K, x1 = 0.3003 | 27.79
293.15 K, x1 = 0.3986 | 21.51
293.15 K, x1 = 0.4476 | 18.81
293.15 K, x1 = 0.5026 | 16.04
293.15 K, x1 = 0.5513 | 13.99
293.15 K, x1 = 0.6093 | 11.77
293.15 K, x1 = 0.6955 | 9.005
293.15 K, x1 = 0.8069 | 6.17
293.15 K, x1 = 0.8986 | 4.294
293.15 K, x1 = 0.9299 | 3.73
298.15 K, x1 = 0.0471 | 40.86
298.15 K, x1 = 0.1215 | 35.33
298.15 K, x1 = 0.2008 | 29.71
298.15 K, x1 = 0.2987 | 23.76
298.15 K, x1 = 0.4022 | 18.52
298.15 K, x1 = 0.4601 | 16.06
298.15 K, x1 = 0.5018 | 14.48
298.15 K, x1 = 0.5507 | 12.73
298.15 K, x1 = 0.5961 | 11.26
298.15 K, x1 = 0.6975 | 8.355
298.15 K, x1 = 0.7954 | 5.941
298.15 K, x1 = 0.9023 | 3.732
298.15 K, x1 = 0.947 | 2.996
303.15 K, x1 = 0.0564 | 32.24
303.15 K, x1 = 0.1139 | 28.91
303.15 K, x1 = 0.2071 | 23.96
303.15 K, x1 = 0.304 | 19.47
303.15 K, x1 = 0.3911 | 15.98
303.15 K, x1 = 0.4512 | 13.87
303.15 K, x1 = 0.5003 | 12.29
303.15 K, x1 = 0.5411 | 11.08
303.15 K, x1 = 0.5977 | 9.543
303.15 K, x1 = 0.7007 | 7.098
303.15 K, x1 = 0.794 | 5.232
303.15 K, x1 = 0.8948 | 3.54
303.15 K, x1 = 0.9402 | 2.883

CCC(=O)OC + Clc1ccccc1
viscosity [mPa·s], 101.3 kPa
Details | 308.15 K | 318.15 K
x1 = 0.0485 | 0.646 | 0.598
x1 = 0.0993 | 0.635 | 0.589
x1 = 0.2038 | 0.612 | 0.57
x1 = 0.2614 | 0.599 | 0.559
x1 = 0.4087 | 0.567 | 0.531
x1 = 0.4556 | 0.556 | 0.522
x1 = 0.6041 | 0.523 | 0.493
x1 = 0.7011 | 0.503 | 0.475
x1 = 0.8064 | 0.479 | 0.454
x1 = 0.9054 | 0.457 | 0.434
x1 = 0.9486 | 0.448 | 0.426

CCCOCCO + CCCCCO
298.15 K, 101.33 kPa
Details | viscosity [mPa·s]
x1 = 0.0215 | 3.463
x1 = 0.0339 | 3.418
x1 = 0.0569 | 3.355
x1 = 0.0878 | 3.254
x1 = 0.1148 | 3.179
x1 = 0.1461 | 3.103
x1 = 0.1776 | 3.025
x1 = 0.2194 | 2.928
x1 = 0.2669 | 2.847
x1 = 0.327 | 2.776
x1 = 0.3773 | 2.72
x1 = 0.4289 | 2.667
x1 = 0.4842 | 2.61
x1 = 0.4911 | 2.608
x1 = 0.5387 | 2.574
x1 = 0.5721 | 2.548
x1 = 0.61 | 2.524
x1 = 0.6569 | 2.493
x1 = 0.7066 | 2.458
x1 = 0.7368 | 2.441
x1 = 0.7698 | 2.426
x1 = 0.8114 | 2.404
x1 = 0.8483 | 2.389
x1 = 0.8888 | 2.374
x1 = 0.9244 | 2.363
x1 = 0.963 | 2.353
x2 = 0.0102 | 2.35

CCCOCCO + CC(=O)N(C)C
298.15 K, 101 kPa
Details | viscosity [mPa·s]
x1 = 0.0049 | 0.951
x1 = 0.0086 | 0.956
x1 = 0.0134 | 0.961
x1 = 0.0272 | 0.982
x1 = 0.0419 | 1.01
x1 = 0.0739 | 1.049
x1 = 0.1253 | 1.125
x1 = 0.178 | 1.202
x1 = 0.2555 | 1.322
x1 = 0.3191 | 1.426
x1 = 0.3487 | 1.478
x1 = 0.3842 | 1.536
x1 = 0.4022 | 1.578
x1 = 0.4678 | 1.679
x1 = 0.5258 | 1.786
x1 = 0.5917 | 1.897
x1 = 0.6504 | 1.987
x1 = 0.725 | 2.094
x1 = 0.8523 | 2.26
x1 = 0.9508 | 2.339
x1 = 0.979 | 2.345

N[C@@H](Cc1ccc(O)cc1)C(=O)O + O
303 K, 100 kPa
Details | viscosity [mPa·s]
x1 = 0.00933 | 0.8931
x1 = 0.00952 | 0.911
x1 = 0.00967 | 0.9501
x1 = 0.00975 | 0.9616
x1 = 0.0098 | 0.9874
x1 = 0.00983 | 1

N#Cc1ccccc1 + OCc1ccccc1
303.15 K, 101 kPa
Details | viscosity [mPa·s]
x2 = 0.146 | 1.123
x2 = 0.276 | 1.263
x2 = 0.3251 | 1.366
x2 = 0.4147 | 1.535
x2 = 0.5549 | 1.902
x2 = 0.6387 | 2.184
x2 = 0.7443 | 2.635
x2 = 0.8022 | 2.942
x2 = 0.9039 | 3.595

CCC(=O)OC + C1CCCCC1
viscosity [mPa·s], 101 kPa
Details | 298.15 K | 308.15 K
x1 = 0.0565 | 0.827 | 0.699
x1 = 0.1524 | 0.742 | 0.621
x1 = 0.2574 | 0.67 | 0.556
x1 = 0.3378 | 0.626 | 0.517
x1 = 0.4555 | 0.578 | 0.475
x1 = 0.4981 | 0.565 | 0.463
x1 = 0.5542 | 0.55 | 0.45
x1 = 0.6536 | 0.532 | 0.434
x1 = 0.7514 | 0.522 | 0.426
x1 = 0.8265 | 0.519 | 0.424
x1 = 0.9564 | 0.526 | 0.432
